This note sets out measurements from patent US6512000B1, “Aminocarbonyl-substituted benzimidazoles having tryptase-inhibitory activity” (Boehringer Ingelheim Pharma KG, priority 1999, dated 2003).

Structures can show the parent of a compound that is named as a salt.

The target of the first assay is T1, rh beta tryptase (Homo sapiens, UniProt P20231).
T1 construct: purchased Promega
T1 sequence (P20231 31-275): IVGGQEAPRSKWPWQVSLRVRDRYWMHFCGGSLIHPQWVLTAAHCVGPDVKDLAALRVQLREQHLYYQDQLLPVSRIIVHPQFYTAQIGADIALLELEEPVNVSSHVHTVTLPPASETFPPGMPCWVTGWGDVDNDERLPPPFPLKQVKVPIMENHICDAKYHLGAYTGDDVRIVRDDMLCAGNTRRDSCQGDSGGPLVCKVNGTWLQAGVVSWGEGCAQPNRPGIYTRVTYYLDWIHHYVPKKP
In words: Tryptase inhibition test (cleavage of N-p-tosyl-Gly-Pro-Lys-para-nitroaniline, p-nitroaniline measured at 405 nm). Format: biochemical. Conditions: concentration at which 50% of the tryptase enzyme activity is inhibited; substrate 0.6 mM, pH 7.4, 37° C. A digest of the protocol: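 Recombinant human beta tryptase (0.91 U/ml) in 100 mM Tris HCl pH 7.4 with 5 mM calcium and 100 mg/ml heparin; compounds pre-incubated 5 min, then 0.6 mM tosyl-Gly-Pro-Lys-pNA added, 5 min at 37 °C. p-Nitroaniline read at 405 nm; % inhibition at 10 μM, IC50 determined when inhibition exceeded 70%.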
Compound `Cn1c(CCc2ccc(C(=N)N)cc2)nc2cc(C(=O)N3CCN(Cc4ccccc4)CC3)ccc21` [Example 55, 2-[2-(4-Amidinophenyl)-ethyl]-1-methyl-benzimidazol-5-yl-carboxylic Acid-[N′-benzyl-piperazide]] showed an IC50 of 346 nM. On the same count and under the same terms, under `Cn1c(CCc2ccc(C(=N)N)cc2)nc2cc(C(=O)N3CCN(c4ccccn4)CC3)ccc21` [Example 52, 2-[2-(4-Amidinophenyl)-ethyl]-1-methyl-benzimidazol-5-yl-carboxylic Acid-[N′-(2-pyridyl)-piperazide]] stands 231 nM; under `CN(C)CCN(C)C(=O)c1ccc2c(c1)nc(CCc1ccc(C(=N)N)cc1)n2C` [Example 3, 2-[2-(4-Amidinophenyl)-ethyl]1l-methyl-benzimidazol-5-yl-carboxylic Acid-N-[2-(N,N-dimethylamino)-ethyl]-N-methyl-amide-dihydrochlonide], 660 nM; under `N=C(N)c1ccc(CCc2nc3cc(C(=O)N(Cc4ccccc4)Cc4ccc(CN)cc4)ccc3n2CCc2ccccc2)cc1` [Example 107, 2-[2-(4-amidinophenyl)ethyl]-1-(2-phenylethyl)-benzimidazol-5-yl-carboxylic acid-N-[4-(amino-methyl)-benzyl]-N-benzyl-amide], 344 nM.

Take `N=C(N)c1ccc(CCc2nc3cc(C(=O)N(Cc4ccc(CN)cc4)Cc4ccc5ccccc5c4)ccc3n2CC2CC2)cc1` [Example 234, 2-[2-(4-amidinophenyl)ethyl]-1-cyclopropylmethyl-benzimidazol-5-yl-carboxylic acid-N-[4-(amino-methyl)-benzyl]-N-(2-naphthylmethyl)-amide]: the half-maximal inhibitory concentration (IC50) worked out at 760 nM. Take `CCOCCCn1c(CCc2ccc(C(=N)N)cc2)nc2cc(C(=O)N(CCN)Cc3cccc(OC)c3)ccc21` [Example 262, 2-[2-(4-amidinophenyl)ethyl]-1-(3-ethoxypropyl)-benzimidazol-5-yl-carboxylic acid-N-(2-aminoethyl)-N-(3-methoxybenzyl)-amide]: inhibition was half-maximal at 284 nM (IC50). Compound `CCOCCCn1c(CCc2ccc(C(=N)N)cc2)nc2cc(C(=O)N(CCN)Cc3cccc(C(F)(F)F)c3)ccc21` [Example 390, 2-[2-(4-amidinophenyl)ethyl]-1-(3-ethoxypropyl)-benzimidazol-5-yl-carboxylic acid-N-(2-aminoethyl)-N-(3-trifluoromethylbenzyl)-amide] had an IC50 of 402 nM. As for `CCOCCCn1c(CCc2ccc(C(=N)N)cc2)nc2cc(C(=O)N(CCN)Cc3ccc4ccccc4c3)ccc21` [Example 422, 2-[2-(4-amidinophenyl)ethyl]-1-(3-ethoxypropyl)-benzimidazol-5-yl-carboxyiic acid-N-(2-aminoethyl)-N-(2-naphthylmethyl)-amide], it took 364 nM to reach half-maximal inhibition (IC50). Consider “2-[2-(4-amidinophenyl)ethyl]-1-cyclopropylmethyl-benzimidazol-5-yl-carboxylic acid-N-(2-aminoethyl)-N-(2-pyridyl)-amide [Example 314]”, for which the IC50 came to 771 nM. With `CN(CCC(=N)N)C(=O)c1ccc2c(c1)nc(CCc1ccc(C(=N)N)cc1)n2C` [Example 7, 2-[2-(4-Amidinophenyl)-ethyl]-1-methyl-benzimidazol-5-yl-carboxylic Acid-N-(2-amidinoethyl)-N-methyl-amide-dihydrochloride], half-maximal inhibition (IC50) was put at 670 nM.

`Cn1c(CCc2ccc(C(=N)N)cc2)nc2cc(C(=O)N(CCC(=N)N)c3cccc(Oc4ccccc4)c3)ccc21` [Example 23, 2-[2-(4-Amidinophenyl)-ethyl]-1-methyl-benzimidazol-5-yl-carboxylic Acid-N-(2-amidinoethyl)-N-(3-phenoxy-phenyl)-amide-dihydrochloride]: half-maximal inhibition (IC50) required 49 nM.

The same assay, now with this note: inhibition of rh beta tryptase at 10 μM test substance; substrate N-p-tosyl-Gly-Pro-Lys-para-nitroaniline 0.6 mM, pH 7.4, 37° C., 5 minutes.
In the case of `CCCCN(CCCC)CCCn1c(CCc2ccc(C(=N)N)cc2)nc2cc(C(=O)N(CCCc3ccccc3)Cc3ccc(CN)cc3)ccc21` [Example 167, 2-[2-(4-amidinophenyl)ethyl]-1-(3-di-n-butylaminopropyl) benzimidazol-5-yl-carboxylic acid-N-[4-(amino-methyl)-benzyl]-N-(3-phenylpropyl)-amide], the inhibition at 10 µM is 52%. Take `Cc1ccccc1N1CCN(CCCn2c(CCc3ccc(C(=N)N)cc3)nc3cc(C(=O)N(CCN)CC4CCCCC4)ccc32)CC1` [Example 352, 2-[2-(4-amidinophenyl)ethyl]-1-{3-[4-(2-methylphenyl)-piperazin-1-yl]-propyl}-benzimidazol-5-yl-carboxylic acid-N-(2-aminoethyl)-N-cyclohexylmethyl-amide]: the inhibition at 10 µM is 51%. As to `N=C(N)c1ccc(CCc2nc3cc(C(=O)N(CCN)Cc4ccc(Cl)cc4)ccc3n2CC2CC2)cc1` [Example 378, 2-[2-(4-amidinophenyl)ethyl]-1-cyclopropylmethyl-benzimidazol-5-yl-carboxylic acid-N-(2-aminoethyl)-N-(4-chlorbenzyl)-amide], the “% Inhibition (10 μM)” value is listed as 52%. Take `CCCCN(CCCC)CCCn1c(CCc2ccc(C(=N)N)cc2)nc2cc(C(=O)N(CCN)CCCc3ccccc3)ccc21` [Example 359, 2-[2-(4-amidinophenyl)ethyl]-1-(3-di-n-butylaminopropyl)-benzimidazol-5-yl-carboxylic acid-N-(2-aminoethyl)-N-(3-phenylpropyl)-amide]: at 10 µM the inhibition was 59%. Take `N=C(N)c1ccc(CCc2nc3cc(C(=O)N(Cc4ccc(Cl)cc4)Cc4ccc(CN)cc4)ccc3n2CCc2ccccc2)cc1` [Example 187, 2-[2-(4-amidinophenyl)ethyl]-1-(2-phenylethyl)-benzimidazol-5-yl-carboxylic acid-N-[4-(amino-methyl)-benzyl]-N-(4-chlorbenzyl)-amide]: the “% Inhibition (10 μM)” value amounted to 63%. Compound `N=C(N)c1ccc(CCc2nc3cc(C(=O)N(CCCc4ccccc4)Cc4ccc(CN)cc4)ccc3n2CC2CC2)cc1` [Example 170, 2-[2-(4-amidinophenyl)ethyl]-1-cyclopropylmethyl-benzimidazol-5-yl-carboxylic acid-N-[4-(amino-methyl)-benzyl]-N-(3-phenylpropyl)-amide] showed an inhibition at 10 µM of 57%. The compound `COC(=O)c1ccc(CN(Cc2ccc(CN)cc2)C(=O)c2ccc3c(c2)nc(CCc2ccc(C(=N)N)cc2)n3CC2CCCO2)cc1` (centres unmarked) [Example 450, 2-[2-(4-amidinophenyl)ethyl]-1-(tetrahydrofuran-2-yl-methyl)-benzimidazol-5-yl-carboxylic acid-N-[4-(amino-methyl)-benzyl]-N-[4-(methoxycarbonyl)-benzyl]-amide] yielded an inhibition at 10 µM of 72%. On to `N=C(N)c1ccc(CCc2nc3cc(C(=O)N(Cc4ccccc4)Cc4ccc(CN)cc4)ccc3n2CCc2ccccc2)cc1` [Example 107, 2-[2-(4-amidinophenyl)ethyl]-1-(2-phenylethyl)-benzimidazol-5-yl-carboxylic acid-N-[4-(amino-methyl)-benzyl]-N-benzyl-amide], for which 10 µM produced 65% inhibition.

With “2-[2-(4-amidinophenyl)ethyl]-1-(2-phenylethyl)-benzimidazol-5-yl-carboxylic acid-N-[4-(amino-methyl)-benzyl]-N-(2-pyridyl)-amide [Example 123]”, the “% Inhibition (10 μM)” value was determined as 60%. `CCCCN(CCCC)CCCn1c(CCc2ccc(C(=N)N)cc2)nc2cc(C(=O)N(CCN)Cc3ccccc3)ccc21` [Example 295, 2-[2-(4-amidinophenyl)ethyl]-1-(3-di-n-butylaminopropyl)-benzimidazol-5-yl-carboxylic acid-N-(2-aminoethyl)-N-benzyl-amide] came in with an inhibition at 10 µM of 55%. `N=C(N)c1ccc(CCc2nc3cc(C(=O)N(Cc4ccc(CN)cc4)CC4CCCCC4)ccc3n2CCc2ccccc2)cc1` [Example 155, 2-[2-(4-amidinophenyl)ethyl]-1-(2-phenylethyl)-benzimidazol-5-yl-carboxylic acid-N-[4-(amino-methyl)-benzyl]-N-cyclohexylmethyl-amide] returned an inhibition at 10 µM of 57%. Compound `CCOCCCn1c(CCc2ccc(C(=N)N)cc2)nc2cc(C(=O)N(CCN)Cc3cccc(OC)c3)ccc21` [Example 262, 2-[2-(4-amidinophenyl)ethyl]-1-(3-ethoxypropyl)-benzimidazol-5-yl-carboxylic acid-N-(2-aminoethyl)-N-(3-methoxybenzyl)-amide] came in with an inhibition at 10 µM of 58%. `CCOCCCn1c(CCc2ccc(C(=N)N)cc2)nc2cc(C(=O)N(CCN)Cc3cccc(C(F)(F)F)c3)ccc21` [Example 390, 2-[2-(4-amidinophenyl)ethyl]-1-(3-ethoxypropyl)-benzimidazol-5-yl-carboxylic acid-N-(2-aminoethyl)-N-(3-trifluoromethylbenzyl)-amide]: the inhibition at 10 µM stood at 60%.

Turning to `N=C(N)c1ccc(CCc2nc3cc(C(=O)N(CCN)Cc4ccc(Cl)cc4)ccc3n2CC2CCCO2)cc1` (centres unmarked) [Example 386, 2-[2-(4-amidinophenyl)ethyl]-1-(tetrahydrofuran-2-yl-methyl)-benzimidazol-5-yl-carboxylic acid-N-(2-aminoethyl)-N-(4-chlorbenzyl)-amide], the “% Inhibition (10 μM)” value was 55%. The compound `CCOCCCn1c(CCc2ccc(C(=N)N)cc2)nc2cc(C(=O)N(CCN)Cc3ccc4ccccc4c3)ccc21` [Example 422, 2-[2-(4-amidinophenyl)ethyl]-1-(3-ethoxypropyl)-benzimidazol-5-yl-carboxyiic acid-N-(2-aminoethyl)-N-(2-naphthylmethyl)-amide] registered an inhibition at 10 µM of 58%. As for “2-[2-(4-amidinophenyl)ethyl]-1-cyclopropylmethyl-benzimidazol-5-yl-carboxylic acid-N-(2-aminoethyl)-N-(2-pyridyl)-amide [Example 314]”, the “% Inhibition (10 μM)” value is given as 61%.

Take “2-[2-(4-amidinophenyl)ethyl]-1-[3-(benzylcarbonylamino)-propyl]-benzimidazol-5-yl-carboxylic acid-N-[4-(amino-methyl)-benzyl]-N-(3-pyridyl)-amide [Example 136]”: the “% Inhibition (10 μM)” value came out at 74%.

For the compound “2-[2-(4-amidinophenyl)ethyl]-1-(tetrahydrofuran-2-yl-methyl)-benzimidazol-5-yl-carboxylic acid-N-[4-(amino-methyl)-benzyl]-N-(3-pyridyl)-amide [Example 146]”, the “% Inhibition (10 μM)” value was determined as 65%. On to `N=C(N)c1ccc(CCc2nc3cc(C(=O)N(CCN)Cc4cccc(C(F)(F)F)c4)ccc3n2CC2CC2)cc1` [Example 394, 2-[2-(4-amidinophenyl)ethyl]-1-cyclopropylmethyl-benzimidazol-5-yl-carboxyiic acid-N-(2-aminoethyl)-N-(3-trifluoromethylbenzyl)-amide], for which the “% Inhibition (10 μM)” value is listed as 52%. Compound `CCCCN(Cc1ccc(CN)cc1)C(=O)c1ccc2c(c1)nc(CCc1ccc(C(=N)N)cc1)n2CC1CC1` [Example 90, 2-[2-(4-amidinophenyl)ethyl]-1-cyclopropylmethyl-benzimidazol-5-yl-carboxylic acid-N-[4-(amino-methyl)-benzyl]-N-n-butyl-amide] registered an inhibition at 10 µM of 67%.

As for “2-[2-(4-amidinophenyl)ethyl]-1-[3-(morpholin-4-yl)-propyl]-benzimidazol-5-yl-carboxylic acid-N-[4-(amino-methyl)-benzyl]-N-(2-fluorobenzyl)-amide [Example 225]”, the “% Inhibition (10 μM)” value is 58%.

In general, IC50 refers to the midpoint of a concentration-inhibition curve. A higher IC50 goes with weaker potency. One may read the inhibition as the drop in the measured response relative to a control, in per cent. A high value points to a response far below the control.
